Test results taken from patent publication US10610517B2, “Compositions and methods for treating neoplastic diseases” (Celgene International II Sàrl, priority 2004, dated 2020).

Assays:
MM.1S cells = assay: cells; conditions: for viable cells: FIG. 12D
From the text: MM.1S cells were also transiently transfected using Cell line Nucleofecto kit V, according to the manufacturer's instructions (Amaxa Biosystems, Germany), with vector alone, DN-caspase-8, DN-caspase-9, or DN-FADD and cotransfected with vector containing green fluorescence protein (GFP) alone.
It was next determined whether inhibition of an upstream signaling pathway that leads to caspase-8 activation affects the response to the compound of formula (II) (X=Cl) or Bortezomib. The Fas-associated death domain (FADD) protein is an important part of the deathinducing signaling complexes (DISCs) that assemble upon engagement of TNF receptor family members, such as Fas, resulting in proteolytic processing and autoactivation of pro-caspase-8. Since both the compound of formula (II) (X=Cl) and Bortezomib trigger caspase-8 activation, the role of FADD during this event in MM cells was evaluated using DN-FADD.

[1] = system: Mouse embryonic fibroblast (MEFs); assay: MTT viability of MEFs with wild-type or knock-out Bax; assay type: cell-based; conditions: 48 h; FIG. 12F
From the text: Results are mean±SD of three independent experiments (P<0.05).

CC12OC(=O)C1(C(O)C1C=CCCC1)NC(=O)C2CCCl (centres unmarked) [compound of formula (II) (X=Cl)]
viable cells (MM.1S cells; DN-FADD-transfected MM.1S cells): 76%±5.1
effect of caspase-8 blockade on triggered cell death (MM.1S cells; IETD-fmk, FIG. 12A): significant decrease in cell death
effect of caspase-9 inhibition on decreased viability (MM.1S cells; LEHD-FMK, FIG. 12A): only moderately blocked
IC50 (MM.1S cells; MM.1S cells, concentration used for treatment): 7 nM
survival of DN-caspase-8-transfected compared to DN-caspase-9-transfected cells (MM.1S cells; treated at IC50, FIG. 12B): markedly increased survival
viable cells (MM.1S cells; vector-transfected MM.1S cells): 42%±2.0
effect of caspase-3 inhibition on induced apoptosis (MM.1S cells; z-VAD-fmk, FIG. 12A): markedly abrogates
cell viability in Bax (WT) and Bax (knock-out) MEFs [1]: decreases viability in both Bax (WT) and Bax (knock-out)
